Assay results taken from patent US20030119067A1, “PYK2 related products and methods” (Sugen, Inc., priority 1996, published 2003).

How the values were obtained:
Type in all cases: cell-based, rat
PYK2 = test: Tyrosine phosphorylation of PYK2 in PC12 cells (immunoprecipitation, anti-phosphotyrosine immunoblot); details: PC12 cells, 37° C.
Src = Src kinase activity in PC12 cells; details: PC12 cells stimulated with LPA or bradykinin
Method: (§1) Sadoshima & Izumo, EMBO J. 15:775-787 (1996); Wan et al., Nature 380:541-544 (1996). The EGF-receptor and erbB2 were also implicated in MAP kinase activation induced by LPA and other agonists of G-protein coupled receptors. Daub et al., Nature 379:557-564 (1996). We have tested whether LPA and bradykinin can activate Src and the EGF receptor in PC12 cells.
(§2) PC12 cells were left untreated (−) or stimulated with LPA (2.5 mM) or bradykinin (1 mM) for 3 min at 37° C. Src was immunoprecipitated and immunoblotted with antibodies against Src, anti-pY416^src antibodies or antibodies against PYK2.

PYK2/Src complex = test: Association of PYK2 with activated Src in PC12 cells (co-immunoprecipitation); details: LPA 2.5 mM or bradykinin 1 mM, 3 min, 37° C.
From the text: We examined the possibility of association between the two protein tyrosine kinases PYK2 and Src in response to LPA or bradykinin stimulation. Lysates from stimulated or unstimulated cells were subjected to immunoprecipitation with antibodies against Src followed by immunoblotting with antibodies against PYK2, against Src or anti-pY416src antibodies that specifically recognize activated Src. Liu et al., Oncogene 8:1119-1126 (1993).
as §2

EGF receptor = test: Activation of EGF receptor in PC12 cells
From the text: as §1

Substance: lysophosphatidic acid [LPA]
- tyrosine phosphorylation of PYK2 (PYK2; LPA 2.5 mM or bradykinin 1 mM, 3 min): rapid tyrosine phosphorylation of PYK2
- increase in the phosphorylation state of PYK2 relative to unstimulated cells (PYK2; LPA 2.5 mM, bradykinin 1 mM 3 min, PMA 1 mM 10 min): 4 fold
- increase in Src kinase activity (Src): approximately three to four
- complex formation of PYK2 with activated Src (PYK2/Src complex): forms a complex with activated Src
- activation of EGF receptor (EGF receptor): unable to detect
